Experimental data taken from patent US8399676B2, “Piperidine derivatives” (Hoffman-La Roche Inc., priority 2009, dated 2013).
Structures can show the parent of a compound that is named as a salt.

The compounds below were run against T1, human HSL (Homo sapiens, UniProt Q05469) (assay: Human Hormone-Sensitive Lipase (HSL) enzyme inhibition assay (colorimetric, DMPT substrate)). Details: read-out: HSL hum IC50.
T1 construct: generate a full length human HSL ORF with a 3′-His6 tag; His6 (C); made in house; host or cells: High 5 insect cells (baculovirus, pFast-BAC)
T1 sequence (Q05469 1-1076): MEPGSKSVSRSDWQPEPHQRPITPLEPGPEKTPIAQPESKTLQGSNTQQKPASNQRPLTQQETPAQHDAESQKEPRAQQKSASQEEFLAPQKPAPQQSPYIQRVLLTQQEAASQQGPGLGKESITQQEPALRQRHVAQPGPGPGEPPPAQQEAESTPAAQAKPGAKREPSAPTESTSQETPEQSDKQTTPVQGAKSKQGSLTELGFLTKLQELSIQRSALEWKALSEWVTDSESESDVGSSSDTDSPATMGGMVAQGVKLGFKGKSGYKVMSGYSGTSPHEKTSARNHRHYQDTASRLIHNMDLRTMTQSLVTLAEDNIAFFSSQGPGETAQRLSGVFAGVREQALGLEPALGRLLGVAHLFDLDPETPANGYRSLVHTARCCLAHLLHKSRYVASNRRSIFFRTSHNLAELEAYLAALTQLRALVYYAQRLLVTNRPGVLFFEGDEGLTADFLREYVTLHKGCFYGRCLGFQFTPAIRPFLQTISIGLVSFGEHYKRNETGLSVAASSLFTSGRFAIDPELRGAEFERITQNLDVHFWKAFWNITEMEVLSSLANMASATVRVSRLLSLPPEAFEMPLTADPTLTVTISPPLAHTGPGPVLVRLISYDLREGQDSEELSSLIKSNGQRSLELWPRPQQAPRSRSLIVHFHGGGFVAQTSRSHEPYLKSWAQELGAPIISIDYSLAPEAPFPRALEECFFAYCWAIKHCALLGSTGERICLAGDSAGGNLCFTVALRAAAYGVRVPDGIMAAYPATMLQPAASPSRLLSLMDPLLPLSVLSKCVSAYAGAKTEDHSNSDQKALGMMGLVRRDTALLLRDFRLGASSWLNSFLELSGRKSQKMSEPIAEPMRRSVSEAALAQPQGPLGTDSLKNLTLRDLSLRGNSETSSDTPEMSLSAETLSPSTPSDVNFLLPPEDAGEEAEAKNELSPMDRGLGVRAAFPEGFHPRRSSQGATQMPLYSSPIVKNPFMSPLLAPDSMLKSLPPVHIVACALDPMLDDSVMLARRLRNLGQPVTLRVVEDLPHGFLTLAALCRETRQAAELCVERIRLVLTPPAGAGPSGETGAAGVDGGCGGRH
Format: biochemical
Procedure: Production of Human Full Length Hormone Sensitive Lipase-His^6
1) Cloning: cDNA was prepared from commercial human brain polyA+ RNA and used as a template in overlapping PCR to generate a full length human HSL ORF with a 3′-His6 tag. This full length insert was cloned into the pFast-BAC vector and the DNA-sequence of several single clones was verified. DNA from a correct full length clone with the 3′His6 tag was used to transform the E. coli strain DH10BAC. Resulting bacmid DNA was used to generate a titered baculovirus stock for protein generation. The sequence of the encoded HSL conforms to Swissprot entry Q05469, with the additional C-terminal His6-tag.
2) Protein purification: Culture: 5.5 L, High 5 cells expressing human full length HSL-His^6, 48 hr., containing 25 μM E-64. Cell count: […], 90% viable.
Cells were thawed. On ice, cells were suspended in Base Buffer containing 10% glycerol, 25 mM Tris-Cl, 300 mM NaCl, 10 mM imidazole, 10 mM 2-mercaptoethanol, 2 μg pepstatin/ml, 2 μg leupeptin/ml, 2 μg antipain/ml, pH 8.0 at 4° C. in a final volume of 475 ml with 3.75×10^7 cells/ml. […] was done at 3×30 sec., Lubrol PX was added to 0.2% final concentration followed by stirring for 15 min. at 4° C. and centrifugation at 25 k×g, 60 min., 4° C. Soluble proteins were mixed with 60 ml of pre-washed and equilibrated Ni-NTA Agarose (Qiagen 30210) followed by tumbling end-over-end, 45 min., 4° C., centrifugation 1000 rpm 5 min and letting resin settle 5 min. Supernatant was removed, the resin washed in the centrifuge vessel using 5 volumes of Base Buffer containing 0.2% Lubrol PX. Centrifugation was done again, then the supernatant discarded. The resin was poured onto a 0.8 μm membrane in a disposable filter unit (Nalge 450-0080), and washed with 5 volumes of Base Buffer containing 0.2% Lubrol PX. It was then washed with 30 volumes of Base Buffer containing 60 mM imidazole pH 7.5 at 4° C. The protein was eluted with 5 volumes of 25 mM Tris-Cl, 300 mM NaCl, 200 mM imidazole, 10 mM 2-mercaptoethanol, pH 7.5 at 4° C. by tumbling resin with buffer end-over-end, 30 min., 4° C. The resin was captured on a 0.2 μm membrane disposable filter unit (Millipore SCGP U02 RE) and the elute collected in the reservoir. The elute was concentrated using a 30 k MWCO centrifugal filter device (Sartorius Vivascience Vivacell 100, VC1022), to 20 ml. It was then dialyzed overnight at 4° C., two times against 2 L of 10% glycerol, 25 mM Tris-Cl, 300 mM NaCl, 0.2 mM EDTA, 0.2 mM DTT, pH 7.5 at 4° C. The protein was filtered using a 0.22 μm disposable filter unit (Millipore SCGP00525). The protein concentration was calculated from absorbance at 280 nm, using 280=0.67 cm-1 mg-1. Yield was 235 mg, total. The protein was stored at −80° C. Human Hormone-Sensitive Lipase (HSL) enzyme inhibition assay:
HSL enzyme activity was measured by a colorimetric assay using 2,3-dimercapto-1-propanol tributyrate (Aldrich, St. Louis, Mo.) as a substrate. Typically, 1.5 mM 2,3-dimercapto-1-propanol tributyrate (DMPT) in 100 mM MOPS, pH 7.2, 0.2 mg/ml fatty acid-free BSA was prepared by sonication at 4° C. to homogenous suspension. Test compounds (2 mM stock in DMSO) were diluted 3 fold in series in DMSO. Compound solutions were diluted 24 fold in 1.5 mM DMPT containing solution and 18 ul per well was added to 384-well microplates (Corning Costar). Twelve microliters per well of human HSL (15 ug/ml) was added and the reaction mixture was incubated at 37° C. for 20 minutes. Six microliters of 12 mM dithio-bis-(2-nitrobenzoic acid) (DTNB) in DMSO plus 1.2% SDS and 0.6% Triton X-100 were added and the mixture was incubated at room temperature for 15 minutes. Product production was monitored by reading absorbance at 405 nm on an Envision Reader (PerkinElmer Life and Analytical Sciences, Shelton, Conn.).
In the case of `O=C(Nc1ccc(OC(F)(F)F)cc1)C1(O)CCN(S(=O)(=O)CCC(F)(F)F)CC1` [Example 62, 4-Hydroxy-1-(3,3,3-trifluoro-propane-1-sulfonyl)-piperidine-4-carboxylic acid (4-trifluoromethoxy-phenyl)-amide], the IC50 is reported as 870 nM. For `CN(C(=O)C1(O)CCN(S(=O)(=O)c2ccccc2Cl)CC1)c1ccc(OC(F)(F)F)cc1` [Example 72, 1-(2-Chloro-benzenesulfonyl)-4-hydroxy-piperidine-4-carboxylic acid methyl-(4-trifluoromethoxy-phenyl)-amide], the IC50 was 60 nM. `CC(C)c1ccc(NC(=O)C2(N)CCN(S(=O)(=O)c3cccc(Cl)c3)CC2)cc1` [Example 117, 4-Amino-1-(3-chloro-benzenesulfonyl)-piperidine-4-carboxylic acid (4-isopropyl-phenyl)-amide] showed an IC50 of 110 nM. Compound `CC(C)c1ccc(NC(=O)C2(N)CCN(Cc3ccc(C(F)(F)F)cc3)CC2)cc1` [Example 112, 4-Amino-1-(4-trifluoromethyl-benzyl)-piperidine-4-carboxylic acid (4-isopropyl-phenyl)-amide; hydrochloride] has an IC50 of 300 nM. `COc1ccc(S(=O)(=O)N2CCC(O)(C(=O)Nc3ccc(C(C)(C)C)cc3)CC2)cc1` [Example 19, 4-Hydroxy-1-(4-methoxy-benzenesulfonyl)-piperidine-4-carboxylic acid (4-tert-butyl-phenyl)-amide] showed an IC50 of 170 nM. For `CCc1ccc(NC(=O)C2(N)CCN(S(=O)(=O)c3ccccc3C)CC2)cc1` [Example 135, 4-Amino-1-(toluene-2-sulfonyl)-piperidine-4-carboxylic acid (4-ethyl-phenyl)-amide], the IC50 was 80 nM. For `CCc1ccc(NC(=O)C2(N)CCN(S(=O)(=O)CC3CCCCC3)CC2)cc1` [Example 144, 4-Amino-1-cyclohexylmethanesulfonyl-piperidine-4-carboxylic acid (4-ethyl-phenyl)-amide], the IC50 was 140 nM. `CC(C)c1ccc(NC(=O)C2(O)CCN(C(=O)Nc3ccc(C(F)(F)F)cc3)CC2)cc1` [Example 6, 4-Hydroxy-piperidine-1,4-dicarboxylic acid 4-[(4-isopropyl-phenyl)-amide] 1-[(4-trifluoromethyl-phenyl)-amide]] showed an IC50 of 210 nM. `NC1(C(=O)Nc2ccc(OC(F)F)cc2)CCN(S(=O)(=O)c2ccccc2Cl)CC1` [Example 97, 4-Amino-1-(2-chloro-benzenesulfonyl)-piperidine-4-carboxylic acid (4-difluoromethoxy-phenyl)-amide] gave an IC50 of 90 nM. For `O=C(c1ccc(F)cc1)N1CCC(O)(C(=O)Nc2ccc(OC(F)(F)F)cc2)CC1` [Example 11, 1-(4-Fluoro-benzoyl)-4-hydroxy-piperidine-4-carboxylic acid (4-trifluoromethoxy-phenyl)-amide], the IC50 was 550 nM. `CC(C)c1ccc(NC(=O)C2(O)CCN(Cc3ccc(C(F)(F)F)cc3)CC2)cc1` [Example 9, 4-Hydroxy-1-(4-trifluoromethyl-benzyl)-piperidine-4-carboxylic acid (4-isopropyl-phenyl)-amide] was tested, and the IC50 was 450 nM. With `CC(C)c1ccc(NC(=O)C2(O)CCN(C(=O)CC(C)(C)C)CC2)cc1` [Example 4, 1-(3,3-Dimethyl-butyryl)-4-hydroxy-piperidine-4-carboxylic acid (4-isopropyl-phenyl)-amide] the IC50 was 720 nM. `CC(C)c1ccc(NC(=O)N2CCC(N)(C(=O)Nc3ccc(C(C)C)cc3)CC2)cc1` [Example 107, 4-Amino-piperidine-1,4-dicarboxylic acid bis-[(4-isopropyl-phenyl)-amide]; hydrochloride] was tested, and the IC50 was 80 nM. With `CC(C)(Oc1ccc(NC(=O)C2(N)CCN(S(=O)(=O)c3ccccc3Cl)CC2)cc1)C(F)(F)F` [Example 102, 4-Amino-1-(2-chloro-benzenesulfonyl)-piperidine-4-carboxylic acid [4-(2,2,2-trifluoro-1,1-dimethyl-ethoxy)-phenyl]-amide] the IC50 was 180 nM. For `CCc1ccc(NC(=O)C2(N)CCN(Cc3ccccc3C(F)(F)F)CC2)cc1` [Example 157, 4-Amino-1-(2-trifluoromethyl-benzyl)-piperidine-4-carboxylic acid (4-ethyl-phenyl)-amide], the IC50 was 180 nM. `CC(C)(C)c1ccc(NC(=O)C2(O)CCN(C(=O)c3ccc(F)cc3)CC2)cc1` [Example 18, 1-(4-Fluoro-benzoyl)-4-hydroxy-piperidine-4-carboxylic acid (4-tert-butyl-phenyl)-amide] gave an IC50 of 210 nM. Work on `O=C(Nc1ccc(OC(F)(F)F)cc1)C1(O)CCN(S(=O)(=O)c2ccccc2Cl)CC1` [Example 10, 1-(2-Chloro-benzenesulfonyl)-4-hydroxy-piperidine-4-carboxylic acid (4-trifluoromethoxy-phenyl)-amide] yielded an IC50 of 120 nM. Work on `Cc1ccc(S(=O)(=O)N2CCC(N)(C(=O)Nc3ccc(C(C)C)cc3)CC2)cc1` [Example 78, 4-Amino-1-(toluene-4-sulfonyl)-piperidine-4-carboxylic acid (4-isopropyl-phenyl)-amide; hydrochloride] yielded an IC50 of 70 nM. `CCc1ccc(NC(=O)C2(N)CCN(Cc3ccccc3OC(F)F)CC2)cc1` [Example 155, 4-Amino-1-(2-difluoromethoxy-benzyl)-piperidine-4-carboxylic acid (4-ethyl-phenyl)-amide] showed an IC50 of 110 nM. With `CC(C)c1ccc(NC(=O)C2(N)CCN(Cc3ccccc3F)CC2)cc1` [Example 109, 4-Amino-1-(2-fluoro-benzyl)-piperidine-4-carboxylic acid (4-isopropyl-phenyl)-amide; hydrochloride] the IC50 was 80 nM.
